Series [1] addresses T1, Steryl-sulfatase (Homo sapiens, UniProt P08842).
T1 sequence (P08842 whole entry): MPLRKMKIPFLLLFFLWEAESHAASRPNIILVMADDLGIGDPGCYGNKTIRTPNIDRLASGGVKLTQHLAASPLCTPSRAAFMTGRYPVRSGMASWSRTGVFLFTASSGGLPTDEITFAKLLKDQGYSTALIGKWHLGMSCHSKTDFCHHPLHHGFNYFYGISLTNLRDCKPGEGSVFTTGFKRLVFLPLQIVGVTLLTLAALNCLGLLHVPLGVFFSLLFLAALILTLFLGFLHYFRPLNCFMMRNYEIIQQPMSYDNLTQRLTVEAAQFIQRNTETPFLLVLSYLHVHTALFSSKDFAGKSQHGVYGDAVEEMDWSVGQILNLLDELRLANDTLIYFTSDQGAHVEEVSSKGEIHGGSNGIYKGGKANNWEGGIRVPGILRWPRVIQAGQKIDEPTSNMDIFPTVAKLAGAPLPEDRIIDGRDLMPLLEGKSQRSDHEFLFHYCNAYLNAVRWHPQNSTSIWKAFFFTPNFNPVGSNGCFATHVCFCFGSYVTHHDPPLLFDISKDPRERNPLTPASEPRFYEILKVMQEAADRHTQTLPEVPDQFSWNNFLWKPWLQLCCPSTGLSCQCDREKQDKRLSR
The series can be described thus: Competitive inhibitory activity against steroid sulfatase (STS).

The target of series [2] is T1, Steryl-sulfatase. The series is described as follows: (§1) Inhibitory activity against steroid sulfatase (STS).
Series [3] has as its target T2, Steryl-sulfatase (Homo sapiens) (UniProt P08842).
T2 sequence (whole entry): T1 sequence (P08842 whole entry)
The description is as §1.

Series [4] deals with T2, Steryl-sulfatase (Homo sapiens).
In series [5] the target is T1, Steryl-sulfatase. The series is described as follows: Inhibitory activity against steroid sulfatase (STS) using methodology of Li et al.
Substrate in series [6]: C[C@]12CC[C@@H]3c4ccc(OS(=O)(=O)O)cc4CC[C@H]3[C@@H]1CCC2=O
The series is described as follows: Michaelis-Menten constant steroid sulfatase (STS) was determined.

A word on the Ki: it is the dissociation constant of the complex between target and ligand, obtained from inhibition or displacement. A high value points to a looser hold on the target. For orientation: Km means the substrate concentration at which the rate is half of its maximum.

In series [1], `C[C@]12CC[C@@H]3c4ccc(C(F)(F)C5N=NN=N5)cc4CC[C@H]3[C@@H]1CCC2=O` yielded a Ki of 16 µM.
In the case of `C[C@]12CC[C@@H]3c4ccc(C(F)(F)S(=O)(=O)O)cc4CC[C@H]3[C@@H]1CC/C2=C\O`, the affinity in series [2], expressed as Ki, was 37 µM.
As to `C[C@]12CC[C@@H]3c4ccc(C(F)(F)S(=O)(=O)O)cc4CCC3[C@@H]1CCC2=O` (single isomer, unassigned), in series [1], the affinity, expressed as Ki, was 57 µM.
Consider `C[C@]12CC[C@@H]3c4ccc(Cc5nnn[nH]5)cc4CCC3[C@@H]1CCC2=O` (single isomer, unassigned), for which, in series [2], the Ki is 72.7 µM. For the same molecule, in series [3], the Alpha Ki amounted to 213 µM.
As for `C[C@]12CC[C@@H]3c4ccc(CS(=O)(=O)O)cc4CC[C@H]3[C@@H]1CC/C2=C\O`, affinity in series [2] was put at a Ki of 140 µM.
As for `C[C@]12CC[C@@H]3c4ccc(CS(=O)(=O)O)cc4CCC3[C@@H]1CCC2=O` (single isomer, unassigned), the Ki in series [2] was 140 µM; in series [5], 600 µM. The molecule also gave an Alpha Ki in series [4] of 1380 µM.

B1: Steryl-sulfatase (Homo sapiens), P08842 (protein)
chain: T1 sequence (P08842 whole entry)
As to B1, the Km in series [6] worked out at 21 µM.

(Values after ChEMBL document CHEMBL1146685, “The difluoromethylene group as a replacement for the labile oxygen in steroid sulfates: a new approach to steroid sulfatase inhibitors” (Bioorg Med Chem Lett, 2004).)
